Reference: US5106407A, “Iodones and methods for antimicrobial use” (priority 1989, dated 1992)
Values after ≈ are worked out from the molar mass of the structure shown.

What was measured:
Bacillus subtilis = assay: minimum inhibitory concentration (MIC), agar dilution; assay type: cell-based; conditions: Bacillus subtilis, ATCC8473; ATCC 8473; nutrient agar pH 6.8; read-out: MIC
Procedure: (§1) The minimum inhibitory concentration (MIC) for the compound of Example 19, i.e., (2-nitrophenyl)-iodonium 2,2-dimethyl-4,6-dioxo-1,3-dioxan-5-ylide was determined for 9 bacteria (using nutrient agar) and 5 yeast and fungi (using malt yeast agar). A one percent solution of this test compound (i.e., the compound of Example 19) was prepared in a mixture of acetone-water. Nutrient agar was prepared at pH 6.8 using deionized water according to standard Difco procedures. Malt yeast agar was prepared by adding 3 g Bacto yeast extract and 42 g Bacto Malt agar per liter of deionized water. The agar (nutrient agar when testing with bacteria and malt yeast agar when testing with yeast and fungi) was dispensed in 30 mL aliquots into 25×200 millimeter (mm) test tubes, capped and autoclaved for 15 min at 115° C. The test tubes containing the agar were cooled in a water bath until the temperature of the agar was 48° C. and then an appropriate amount of the one percent solution of the test compound was added (except in the controls where no test compound was added with the acetone-water) to the respective test tubes so that final concentrations of 500, 250, 100, 50, 25, 10, 5, 2.5, 1.0 and 0 parts per million (ppm) of the test compound in the agar were obtained. The agar solutions were each mixed and poured into individual petri plates so that each petri plate contained agar having a known concentration of test compound dispersed therein. After drying for 24 hr, the petri plates were inoculated with bacteria when the petri plates contained nutrient broth agar or with fungi and yeast when the petri plates contained malt yeast agar.
(§2) The inoculation with bacteria was accomplished using the following procedure. Twenty-four hr cultures of each of the bacteria were prepared by incubating the respective bacteria in tubes containing nutrient broth for 24 hr at 30° C. in a shaker. Dilutions of each of the 24 hr cultures were made so that 9 separate suspensions (one for each of the 9 test bacteria) were made, each containing about 10^8 colony forming units (CFU) per mL of suspension of a particular bacteria. Aliquots of 0.3 mL of each of the above suspensions were used to fill individual wells of a Steer's Replicator. For each microbial suspension, 0.3 mL was used to fill 3 wells (i.e., 3 wells of 0.3 mL each) so that for the 9 different bacteria 27 wells were filled. The Steer's Replicator was then used to inoculate the petri plates.
(§3) The petri plates were incubated at 30° C. for 48 hr and then read to determine if the test compound (i.e., the compound of Example 19) which was incorporated into the agar prevented growth of the respective bacteria. The minimum inhibitory concentration (MIC) for each bacteria was defined as the lowest concentration of the test compound which prevented growth of that bacteria.
(§4) In a similar procedure, the MIC (in ppm) of the compound of Example 11 (i.e., (2-nitrophenyl)-iodonium 2,6-dioxocyclohexylide) for various organisms was determined at an acid pH (about 6.8) and at an alkaline pH (about 8.2).
(§5) Using similar procedures, the MIC's (in ppm) of various compounds of Formula I and/or Formula II were determined for the organisms Enterobacter aerogenes and Bacillus subtilis in a neutral solution (pH about 6.8) and in an alkaline medium (pH about 8.2).

Enterobacter aerogenes = assay: as above; assay type: cell-based; conditions: Klebsiella aerogenes, ATCC13048; ATCC 13048; nutrient agar pH 6.8; read-out: MIC
Procedure: as §1, §2, §3, §4, §5

[1] = test system: bacteria listed in Table I, Klebsiella oxytoca, Enterobacter gergoviae, Pseudomonas putida #1, and Pseudomonas putida #2; assay: hand lotion preservation test;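 also: colony count scale from 1 for no colonies up to 10 for a solid mass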
Procedure: Fifty gram aliquots of the latex were placed in sterile bottles and one hundred gram aliquots of the diluted cutting oil were placed in 250-mL Erlenmeyer flasks. An appropriate amount of a fresh 1 percent stock solution of (2-nitrophenyl)-iodonium 2,2-dimethyl-4,6-dioxo-1,3-dioxan-5-ylide in acetone-water was added to achieve the desired final concentrations (see Tables 5 and 6). A small portion of the respective latex or cutting oil preparation was then streaked onto Tryptic Soy Agar (TSA) petri plates using sterile cotton swabs to determine whether the preparations were sterile. If the particular preparation was sterile, it was then inoculated with an appropriate volume (0.1 mL for the latex and 0.2 mL for the cutting oil) of a mixture of equal aliquots of 24 hr cultures of each of the bacterial organisms listed in Table 1 (not the fungi and yeast). The latex samples were incubated at 30° C. and the cutting oils were agitated on a rotary shaker at room temperature. After 24 hr, all samples were again streaked on TSA. All plates were then incubated at 30° C. for 48 hr and then rated 1 to 10 according to the growth rating system described in Table 4.
The results from this first set of streaks after inoculation are listed in the columns labeled streak number 1 in Tables 5 and 6. Samples with a rating of 3 or less from streak number 1 were reinoculated as described for the first inoculation above. Samples with a rating of 4 or greater were not reinoculated. After another 24 hr all samples were again restreaked on TSA agar. The results from these second streaks were labeled streak number 2 in Tables 5 and 6. Samples were reinoculated and restreaked in this fashion for a maximum of 10 streaks. Any samples with two streaks in a row with a ten rating were not restreaked again.
The ingredients of the hand creme, hand lotion, and protein shampoo are listed in Tables 7, 8 and 9, respectively. In the cosmetic preservative procedures, the stock solution of (2-nitrophenyl)-iodonium 2,2-dimethyl-4,6-dioxo-1,3-dioxan-5-ylide) was made in dimethylformamide (DMF)/water solution. In addition to the bacteria listed in Table I, the following bacteria were also included in the inocula: Klebsiella oxytoca, Enterobacter gergoviae, Pseudomonas putida #1, and Pseudomonas putida #2.

## CC1(C)OC(=O)[C-]([I+]c2ccccc2[N+](=O)[O-])C(=O)O1 [Example 19, (2-Nitrophenyl)-iodonium 2,2-dimethyl-4,6-dioxo-1,3-dioxan-5-ylide]
Bacillus subtilis
  MIC: ≤ 1 µg/mL
Enterobacter aerogenes
  MIC: 1 µg/mL (≈ 2.56 µM)
[1]; 10 ppm, streak 1
  growth rating: 1 (0)
[1]; 10 ppm, streak 2
  growth rating: 1 (0)
[1]; 10 ppm, streak 3
  growth rating: 2 (1-4)
[1]; 10 ppm, streak 6
  growth rating: 9
[1]; 10 ppm, streak 8
  growth rating: 9
[1]; 10 ppm, streak 9
  growth rating: 10
[1]; 10 ppm, streak 10
  growth rating: 10
[1]; 25 ppm, streak 1
  growth rating: 1 (0)
[1]; 25 ppm, streak 2
  growth rating: 1 (0)
[1]; 25 ppm, streak 3
  growth rating: 1 (0)
[1]; 25 ppm, streak 4
  growth rating: 1 (0)
[1]; 25 ppm, streak 5
  growth rating: 1 (0)
[1]; 25 ppm, streak 6
  growth rating: 1 (0)
[1]; 25 ppm, streak 7
  growth rating: 1 (0)
[1]; 25 ppm, streak 8
  growth rating: 1 (0)
[1]; 25 ppm, streak 9
  growth rating: 1 (0)
[1]; 25 ppm, streak 10
  growth rating: 2 (1-4)
[1]; 50 ppm, streak 1
  growth rating: 1 (0)
[1]; 50 ppm, streak 2
  growth rating: 1 (0)
[1]; 50 ppm, streak 3
  growth rating: 1 (0)
[1]; 50 ppm, streak 4
  growth rating: 1 (0)
[1]; 50 ppm, streak 5
  growth rating: 1 (0)
[1]; 50 ppm, streak 6
  growth rating: 1 (0)
[1]; 50 ppm, streak 7
  growth rating: 1 (0)
[1]; 50 ppm, streak 8
  growth rating: 1 (0)
[1]; 50 ppm, streak 9
  growth rating: 1 (0)
[1]; 50 ppm, streak 10
  growth rating: 1 (0)
[1]; 100 ppm, streak 1
  growth rating: 1 (0)
[1]; 100 ppm, streak 2
  growth rating: 1 (0)
[1]; 100 ppm, streak 3
  growth rating: 1 (0)
[1]; 100 ppm, streak 4
  growth rating: 1 (0)
[1]; 100 ppm, streak 5
  growth rating: 1 (0)
[1]; 100 ppm, streak 6
  growth rating: 1 (0)
[1]; 100 ppm, streak 7
  growth rating: 1 (0)
[1]; 100 ppm, streak 8
  growth rating: 1 (0)
[1]; 100 ppm, streak 9
  growth rating: 1 (0)
[1]; 100 ppm, streak 10
  growth rating: 1 (0)
